Test results: PMC12392461, “Beyond Estrogenicity: A Comparative Assessment of Bisphenol A and Its Alternatives in In Vitro Assays Questions Safety of Replacements” (Environmental Science & Technology, 2025)
Where two headings read alike, the source gives them in different places.

Experiments:
[1] = Abiotic CYP (aCYP) oxidation, remaining parent compound (Cparent-Ratio)
Estrogen Receptor ERα = target: T1, Estrogen Receptor ERα (Homo sapiens, UniProt P03372); assay: cell-based; details: This Study
T1 sequence (P03372 311-547 limits assumed): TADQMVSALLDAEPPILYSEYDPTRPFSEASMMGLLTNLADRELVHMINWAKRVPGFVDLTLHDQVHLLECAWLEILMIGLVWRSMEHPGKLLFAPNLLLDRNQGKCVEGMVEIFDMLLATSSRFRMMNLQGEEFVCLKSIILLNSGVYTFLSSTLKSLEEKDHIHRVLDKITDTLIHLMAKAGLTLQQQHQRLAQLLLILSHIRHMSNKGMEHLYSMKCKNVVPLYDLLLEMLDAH
Text: All bioassay media components and the ERα-UAS-bla GripTite and PPARγ-UAS-bla cells were obtained from Thermo Fisher Scientific (Waltham, MA, USA). AREc32 reporter gene cells based on MCF7 were provided by C. Roland Wolf (Cancer Research UK); AhR CALUX cells (H4L7.5c2 derived from H4IIe) were provided by Michael Denison (UC Davis, USA); and SH-SY5Y cells were purchased from Sigma-Aldrich.
Cell culture conditions and bioassay protocols including response detection are provided in Text S2.1–2.4 and Table S3. − Cell viability was determined from cell confluency using an IncuCyte S3 Live-Cell Analysis System (Sartorius AG, Essen, Germany) before and after exposure, except for SH-SY5Y cells (live–dead staining with Nuclear Green LcS1 and propidium iodide, Abcam, UK). For metabolic activation experiments, cell viability was assessed using the ToxBLAzer DualScreen Kit (Thermo Fisher Scientific) to capture the remaining toxicity in ERα-UAS-bla GripTite after treatment with the aCYP catalyst (details in Text S2.4).
For ARE, the concentration that triggered an induction ratio of 1.5 (ECIR1.5) was used as the benchmark value, as detailed in Text S2.5. IC10 values also served as a threshold for data analysis in all assays; only concentrations below IC10 were considered when deriving EC10 or ECIR1.5.
The maximum efficacy (Emax%) refers to the maximum of the log–logistic concentration–response curve attained by test chemicals compared to the reference chemical’s maximum and was obtained for both ERα and PPARγ. […]
S2: Cell culture and bioassays
S2.1: Cell Culturing Conditions
All suppliers and sources are given in detail in SI-Excel S3. The bioassay media for the different assays were prepared as follows: Assay medium for ER alpha-UAS-bla GripTite (ERα) and […]
2% charcoal-stripped FBS, and 100 U/mL penicillin-streptomycin. […]
S2.2: Cell Seeding and Incubation. For all bioassays, cell suspensions in the respective assay medium were dispensed into each well of 384-well plates using a MultiFlo Dispenser (Biotek, (now Agilent), Winooski, VT, U.S.). After seeding, the plates were incubated at 37° C and 5% CO₂ for […]. The final cell densities and plate types were as follows: Black poly-D-lysine […]
6500 cells/well, ERα: 5000 cells/well. White 384-well plates with a clear bottom (Product No. […]
S2.3: Chemical Dosing and Assay Analysis Procedures.

ERα = details: ref Pelch et al 2019; cited from earlier work
Tox21 assays [2] = details: re-evaluated Tox21 data, ref Adamovsky et al 2024, cited from earlier work
Tox21 assays [3] = assay: Re-evaluated Tox21 data (Adamovsky et al.), REPBPA and SRbaseline; details: for REPBPA: Relative Effect Potency; for SRbaseline: Specificity Ratio;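 on all read-outs here: published Tox21 results reanalysed with a revised model predicting baseline toxicity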
Text: We also reanalyzed the Tox21 data of Adamovsky et al. with the updated baseline toxicity prediction model (Table S2).

keratinocytes = test system: keratinocytes; set-up: method as in Son et al.; details: ref Son et al.; cited from earlier work
[4] = set-up: method as in ref 12 (ECHA); details: ref 12 (ECHA), cited from earlier work
[5] = set-up: method as in ref EFSA; details: in vitro and in vivo data; ref EFSA; cited from earlier work
[6] = TOX21_AR_LUC_MDAKB2_Antagonist_0,5nM_R1881
[7] = TOX21_PPARg_BLA_antagonist_ratio

## O=S(=O)(c1ccc(O)cc1)c1ccccc1O [2, 4BPS]
[1]; Table S9, loss of parent after aCYP oxidation
  % Loss: -4.66%
[1]; Table S9, mean of two replicate experiments
  Cparent-Ratio Mean: 1.05
[1]; Table S9, replicate 1
  Cparent-Ratio Rep.1 %: 108.33%
[1]; Table S9, replicate 1, as fraction
  Cparent-Ratio Rep.1: 1.08
[1]; Table S9, replicate 2
  Cparent-Ratio Rep.2 %: 100.98%
[1]; Table S9, replicate 2, as fraction
  Cparent-Ratio Rep.2: 1.01

## O=S(=O)(c1ccc(O)cc1)c1ccccc1O [24BPS]
Estrogen Receptor ERα
  Efficacy %: 19.00%
Estrogen Receptor ERα; ERα, in M
  EC10: 1.98E-05
Estrogen Receptor ERα; relative estrogenic potency vs BPA
  REPBPA: 1.87E-02
ERα
  Efficacy %: 24.30%

## Cc1cc(C(C)(C)c2ccc(O)c(C)c2)ccc1O [BPC]
Tox21 assays [2]; ATG_PPARg_TRANS_up
  EC10: 1880 nM
Tox21 assays [2]; [6]
  EC10: 850 nM
Tox21 assays [2]; [7]
  EC10: 3090 nM
Tox21 assays [3]; ATG_PPARg_TRANS_up
  REPBPA: 0.85
  SRbaseline: 17.78
Tox21 assays [3]; [6]
  REPBPA: 2.85
  SRbaseline: 39.40
Tox21 assays [3]; [7]
  SRbaseline: 10.83

## CC1(C)C(O)C(C)(C)C1O (centres unmarked) [TMCD, 2,2,4,4-tetramethyl-1,3-cyclobutanediol]
keratinocytes
  concentration with statistically significant reduced cell viability: 350 µM
[4]; aqueous solution
  degradation in OECD guideline test 301B: no degradation
[4]
  time reported to remain stable: 22 days
[5]
  genotoxicity categorisation: nongenotoxic
[1]
  parent compound during aCYP oxidation: remained unchanged
